In ChEMBL document CHEMBL5705893, “Targeting the mitotic checkpoint for cancer therapy with NMS-P715, an inhibitor of MPS1 kinase” (Cancer Res, 2010):
Active and inactive are the calls of the source. The calls are words filed in the database; no cut-off is given here.

Columns and labels:
[1] = Inhibition of recombinant ABL (unknown origin); set-up: species or system Homo sapiens
[2] = target: Cyclin-dependent kinase 4/cyclin D1 (Homo sapiens, UniProt P11802); assay: Inhibition of recombinant CDK4/CYCD1 (unknown origin); assay type: protein-complex assay
[3] = target: Serine/threonine-protein kinase Chk1 (Homo sapiens, UniProt O14757); assay: Inhibition of recombinant CHK1 (unknown origin)
[4] = target: Fibroblast growth factor receptor 1 (Homo sapiens, UniProt P11362); assay: Inhibition of recombinant FGFR1 (unknown origin)
[5] = target: Tyrosine-protein kinase JAK3 (Homo sapiens, UniProt P52333); assay: Inhibition of recombinant JAK3 (unknown origin)
[6] = target: MAP kinase-interacting serine/threonine-protein kinase 2 (Homo sapiens, UniProt Q9HBH9); assay: Inhibition of recombinant MNK2 (unknown origin)
[7] = target: Serine/threonine-protein kinase NIM1 (Homo sapiens, UniProt Q8IY84); assay: Inhibition of recombinant NIM1 (unknown origin)
[8] = target: Eukaryotic translation initiation factor 2-alpha kinase 3 (Homo sapiens, UniProt Q9NZJ5); assay: Inhibition of recombinant PERK (unknown origin)
[9] = target: Serine/threonine-protein kinase pim-1 (Homo sapiens, UniProt P11309); assay: Inhibition of recombinant PIM1 (unknown origin)
[10] = target: Vascular endothelial growth factor receptor 2 (Homo sapiens, UniProt P35968); assay: Inhibition of recombinant VEGFR2 (unknown origin)
[11] = system: MCF7; assay: Antiproliferative activity against human MCF7 cells assessed as inhibition of cell growth incubated for 72 hrs by celltiter-glo assay; assay type: functional, cell-based; details: MCF7, 72 h
[12] = system: MDA-MB-435; assay: Antiproliferative activity against human MDA-MB-435 cells assessed as inhibition of cell growth incubated for 72 hrs by celltiter-glo assay; assay type: functional, cell-based; details: MDA-MB-435, 72 h
[13] = system: HeLa; assay: Antiproliferative activity against human HeLa cells assessed as inhibition of cell growth incubated for 72 hrs by celltiter-glo assay; assay type: functional, cell-based
[14] = Antiproliferative activity against human COLO 206F cells assessed as inhibition of cell growth incubated for 72 hrs by celltiter-glo assay; assay type: functional, cell-based
[15] = system: LS180; assay: Antiproliferative activity against human LS180 cells assessed as inhibition of cell growth incubated for 72 hrs by celltiter-glo assay; assay type: functional, cell-based; details: LS180, 72 h
[16] = system: COLO-678; assay: Antiproliferative activity against human COLO-678 cells assessed as inhibition of cell growth incubated for 72 hrs by celltiter-glo assay; assay type: functional, cell-based; details: COLO-678, 72 h
[17] = system: A-431; assay: Antiproliferative activity against human A-431 cells assessed as inhibition of cell growth incubated for 72 hrs by celltiter-glo assay; assay type: functional, cell-based; details: A-431, 72 h
[18] = system: SF-295; assay: Antiproliferative activity against human SF-295 cells assessed as inhibition of cell growth incubated for 72 hrs by celltiter-glo assay; assay type: functional, cell-based; details: SF-295, 72 h
[19] = system: KG-1; assay: Antiproliferative activity against human KG-1 cells assessed as inhibition of cell growth incubated for 72 hrs by celltiter-glo assay; assay type: functional, cell-based; details: KG-1, 72 h
[20] = system: KARPAS-299; assay: Antiproliferative activity against human KARPAS-299 cells assessed as inhibition of cell growth incubated for 72 hrs by celltiter-glo assay; assay type: functional, cell-based; details: KARPAS-299, 72 h
[21] = system: HOP-92; assay: Antiproliferative activity against human HOP-92 cells assessed as inhibition of cell growth incubated for 72 hrs by celltiter-glo assay; assay type: functional, cell-based; details: HOP-92, 72 h
[22] = system: EKVX; assay: Antiproliferative activity against human EKVX cells assessed as inhibition of cell growth incubated for 72 hrs by celltiter-glo assay; assay type: functional, cell-based
[23] = system: SU-DHL10; assay: Antiproliferative activity against human SU-DHL-10 cells assessed as inhibition of cell growth incubated for 72 hrs by celltiter-glo assay; assay type: functional, cell-based; details: SU-DHL10, 72 h
[24] = system: SUD4; assay: Antiproliferative activity against human SU-DHL-4 cells assessed as inhibition of cell growth incubated for 72 hrs by celltiter-glo assay; assay type: functional, cell-based; details: SU-DHL-4, 72 h
[25] = system: SR; assay: Antiproliferative activity against human SR cells assessed as inhibition of cell growth incubated for 72 hrs by celltiter-glo assay; assay type: functional, cell-based
[26] = system: SK-MEL-28; assay: Antiproliferative activity against human SK-MEL-28 cells assessed as inhibition of cell growth incubated for 72 hrs by celltiter-glo assay; assay type: functional, cell-based; details: SK-MEL-28, 72 h
[27] = system: RPMI-8226; assay: Antiproliferative activity against human RPMI-8226 cells assessed as inhibition of cell growth incubated for 72 hrs by celltiter-glo assay; assay type: functional, cell-based; details: RPMI-8226, 72 h
[28] = Antiproliferative activity against human RPMI 8226/ADR cells assessed as inhibition of cell growth incubated for 72 hrs by celltiter-glo assay; assay type: functional, cell-based
[29] = Antiproliferative activity against human GM03798 cells assessed as inhibition of cell growth incubated for 72 hrs by celltiter-glo assay; assay type: functional, cell-based; details: GM03798, 72 h
[30] = system: BJ; assay: Antiproliferative activity against human BJ cells assessed as inhibition of cell growth incubated for 72 hrs by celltiter-glo assay; assay type: functional, cell-based
[31] = system: IGROV-1; assay: Antiproliferative activity against human IGROV-1 cells assessed as inhibition of cell growth incubated for 72 hrs by celltiter-glo assay; assay type: functional, cell-based; details: IGROV-1, 72 h
[32] = system: CAPAN-1; assay: Antiproliferative activity against human CAPAN-1 cells assessed as inhibition of cell growth incubated for 72 hrs by celltiter-glo assay; assay type: functional, cell-based; details: CAPAN-1, 72 h
[33] = system: SN12C; assay: Antiproliferative activity against human SN12C cells assessed as inhibition of cell growth incubated for 72 hrs by celltiter-glo assay; assay type: functional, cell-based
[34] = Antiproliferative activity against human NPA cells assessed as inhibition of cell growth incubated for 72 hrs by celltiter-glo assay; assay type: functional, cell-based
[35] = system: U2OS; assay: Induction of mitotic arrest in human U2OS cells expressing YFP-alpha-tubulin assessed as reduction in mitotic cells at 1 micromol/L by time-lapse microscopic analysis; assay type: functional, cell-based; details: dose 1.0 µmol/L
[36] = system: U2OS; assay: Induction of mitotic arrest in human U2OS cells expressing YFP-alpha-tubulin assessed as effect on bipolar spindle formation at 1 micromol/L by time-lapse microscopic analysis; assay type: functional, cell-based; details: dose 1.0 µmol/L
[37] = system: HCT-116; assay: Growth inhibition of human HCT-116 cells at 1 micromol/L incubated for 24 hrs; assay type: functional, cell-based; details: dose 1.0 µmol/L
[38] = system: A2780; assay: Induction of apoptosis in human A2780 cells assessed as upregulation of histone H3 dephosphorylation at 0.2 to 1 micromol/L incubated for 2 to 72 hrs by Western blot analysis; assay type: functional, cell-based; details: dose 0.2-1 µmol/L, time 2-72 hrs
[39] = Half life in Athymic nu-nu mouse at 100 mg/kg, po measured upto 24 hrs by LC-MS/MS analysis; assay type: ADME, organism-based; details: in vivo
[40] = Oral bioavailability in Athymic nu-nu mouse at 10 mg/kg measured upto 24 hrs by LC-MS/MS analysis; assay type: ADME, organism-based; details: in vivo
[41] = Oral bioavailability in Athymic nu-nu mouse at 100 mg/kg measured upto 24 hrs by LC-MS/MS analysis; assay type: ADME, organism-based; details: in vivo
[42] = system: A-375; assay: Antitumor activity against human A-375 cells xenografted in Athymic nu-nu nude mouse assessed as tumor growth inhibition at 100 mg/kg, po measured after 10 days; assay type: functional; details: A-375, 240 h, time 10 day, read-out: TGI
[43] = target: Cyclin-dependent kinase 5/CDK5 activator 1 (Homo sapiens, UniProt Q00535)
Cyclin-dependent kinase 5/CDK5 activator 1, sequence (Q00535 whole entry): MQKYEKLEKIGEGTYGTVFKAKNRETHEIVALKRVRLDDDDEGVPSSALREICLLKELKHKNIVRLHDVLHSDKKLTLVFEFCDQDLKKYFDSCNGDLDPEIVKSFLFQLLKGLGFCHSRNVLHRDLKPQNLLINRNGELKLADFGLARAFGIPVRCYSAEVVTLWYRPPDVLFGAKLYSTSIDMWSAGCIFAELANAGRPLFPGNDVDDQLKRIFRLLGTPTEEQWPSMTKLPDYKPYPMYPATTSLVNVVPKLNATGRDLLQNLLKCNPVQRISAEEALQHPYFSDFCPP
Cyclin-dependent kinase 5/CDK5 activator 1, sequence (Q15078 whole entry, further chain): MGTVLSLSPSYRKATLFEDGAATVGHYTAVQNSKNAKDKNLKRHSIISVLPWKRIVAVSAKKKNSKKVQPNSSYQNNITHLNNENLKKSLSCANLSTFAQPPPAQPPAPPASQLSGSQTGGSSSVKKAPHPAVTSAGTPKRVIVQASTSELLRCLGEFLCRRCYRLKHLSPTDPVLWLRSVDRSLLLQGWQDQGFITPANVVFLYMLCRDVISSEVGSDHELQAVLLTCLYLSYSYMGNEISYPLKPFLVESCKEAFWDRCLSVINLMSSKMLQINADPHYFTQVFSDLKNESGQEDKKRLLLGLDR
Description: Inhibition of recombinant CDK5/P25 (unknown origin)

Serine/threonine-protein kinase NIM1, sequence (Q8IY84 whole entry): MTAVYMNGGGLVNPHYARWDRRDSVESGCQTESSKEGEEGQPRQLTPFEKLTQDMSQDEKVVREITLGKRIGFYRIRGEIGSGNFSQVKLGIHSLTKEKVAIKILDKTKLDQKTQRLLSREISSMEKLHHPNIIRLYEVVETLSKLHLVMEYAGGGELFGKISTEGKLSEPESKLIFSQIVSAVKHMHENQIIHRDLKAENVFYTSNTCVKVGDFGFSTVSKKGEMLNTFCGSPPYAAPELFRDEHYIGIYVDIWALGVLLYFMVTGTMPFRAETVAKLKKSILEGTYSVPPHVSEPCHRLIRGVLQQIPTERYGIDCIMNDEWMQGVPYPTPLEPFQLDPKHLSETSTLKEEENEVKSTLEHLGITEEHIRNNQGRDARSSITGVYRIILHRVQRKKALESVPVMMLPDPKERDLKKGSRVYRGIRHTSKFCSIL
Cyclin-dependent kinase 4/cyclin D1, sequence (P11802 whole entry): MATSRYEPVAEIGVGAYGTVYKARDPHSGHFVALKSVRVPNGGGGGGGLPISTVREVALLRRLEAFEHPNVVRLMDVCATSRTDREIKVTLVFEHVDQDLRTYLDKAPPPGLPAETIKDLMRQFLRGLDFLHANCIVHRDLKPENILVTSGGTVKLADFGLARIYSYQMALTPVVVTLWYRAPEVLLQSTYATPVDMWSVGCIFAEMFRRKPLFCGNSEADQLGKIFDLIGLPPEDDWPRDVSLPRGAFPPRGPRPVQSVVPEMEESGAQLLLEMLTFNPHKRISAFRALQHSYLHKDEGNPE
Cyclin-dependent kinase 4/cyclin D1, sequence (P24385 whole entry, further chain): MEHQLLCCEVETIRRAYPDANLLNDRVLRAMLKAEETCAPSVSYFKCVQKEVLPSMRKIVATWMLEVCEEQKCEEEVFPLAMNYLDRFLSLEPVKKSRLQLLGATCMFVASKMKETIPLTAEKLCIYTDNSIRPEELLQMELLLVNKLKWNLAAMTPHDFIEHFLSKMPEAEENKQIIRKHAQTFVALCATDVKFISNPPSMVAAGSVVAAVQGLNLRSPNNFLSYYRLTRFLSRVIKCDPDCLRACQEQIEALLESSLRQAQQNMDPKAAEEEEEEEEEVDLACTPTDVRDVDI
MAP kinase-interacting serine/threonine-protein kinase 2, sequence (Q9HBH9 whole entry): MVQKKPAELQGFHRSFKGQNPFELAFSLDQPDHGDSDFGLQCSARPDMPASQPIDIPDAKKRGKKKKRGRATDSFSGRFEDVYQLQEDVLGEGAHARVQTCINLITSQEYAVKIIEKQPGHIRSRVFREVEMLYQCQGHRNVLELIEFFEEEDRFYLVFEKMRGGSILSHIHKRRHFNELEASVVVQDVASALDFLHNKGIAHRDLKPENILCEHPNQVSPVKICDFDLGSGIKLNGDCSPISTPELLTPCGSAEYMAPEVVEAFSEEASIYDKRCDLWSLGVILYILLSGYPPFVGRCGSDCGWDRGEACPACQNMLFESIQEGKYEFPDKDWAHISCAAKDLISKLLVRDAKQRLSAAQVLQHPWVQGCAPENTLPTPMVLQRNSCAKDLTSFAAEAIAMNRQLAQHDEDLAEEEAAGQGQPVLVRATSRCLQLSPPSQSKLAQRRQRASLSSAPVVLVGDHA
Serine/threonine-protein kinase pim-1, sequence (P11309 whole entry): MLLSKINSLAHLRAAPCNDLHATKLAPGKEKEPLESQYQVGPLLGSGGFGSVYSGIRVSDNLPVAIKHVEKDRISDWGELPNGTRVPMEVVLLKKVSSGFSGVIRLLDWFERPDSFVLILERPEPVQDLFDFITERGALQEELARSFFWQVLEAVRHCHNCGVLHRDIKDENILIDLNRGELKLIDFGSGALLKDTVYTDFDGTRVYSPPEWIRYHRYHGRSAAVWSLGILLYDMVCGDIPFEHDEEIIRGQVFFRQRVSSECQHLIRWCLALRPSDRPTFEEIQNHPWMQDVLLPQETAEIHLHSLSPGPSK
Serine/threonine-protein kinase Chk1, sequence (O14757 whole entry): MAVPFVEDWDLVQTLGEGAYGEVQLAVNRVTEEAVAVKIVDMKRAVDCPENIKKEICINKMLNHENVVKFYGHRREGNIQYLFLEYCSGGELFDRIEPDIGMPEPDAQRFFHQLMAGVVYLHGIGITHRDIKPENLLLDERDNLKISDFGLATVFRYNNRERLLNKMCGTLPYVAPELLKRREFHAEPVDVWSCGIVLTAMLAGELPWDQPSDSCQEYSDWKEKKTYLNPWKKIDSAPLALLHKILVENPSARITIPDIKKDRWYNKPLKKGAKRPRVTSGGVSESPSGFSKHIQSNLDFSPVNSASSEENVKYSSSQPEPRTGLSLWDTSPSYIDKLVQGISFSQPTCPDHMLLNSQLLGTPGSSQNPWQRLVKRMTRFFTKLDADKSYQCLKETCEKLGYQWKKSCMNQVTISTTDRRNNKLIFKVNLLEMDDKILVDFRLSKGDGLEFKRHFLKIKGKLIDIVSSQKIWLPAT
Fibroblast growth factor receptor 1, sequence (P11362 whole entry): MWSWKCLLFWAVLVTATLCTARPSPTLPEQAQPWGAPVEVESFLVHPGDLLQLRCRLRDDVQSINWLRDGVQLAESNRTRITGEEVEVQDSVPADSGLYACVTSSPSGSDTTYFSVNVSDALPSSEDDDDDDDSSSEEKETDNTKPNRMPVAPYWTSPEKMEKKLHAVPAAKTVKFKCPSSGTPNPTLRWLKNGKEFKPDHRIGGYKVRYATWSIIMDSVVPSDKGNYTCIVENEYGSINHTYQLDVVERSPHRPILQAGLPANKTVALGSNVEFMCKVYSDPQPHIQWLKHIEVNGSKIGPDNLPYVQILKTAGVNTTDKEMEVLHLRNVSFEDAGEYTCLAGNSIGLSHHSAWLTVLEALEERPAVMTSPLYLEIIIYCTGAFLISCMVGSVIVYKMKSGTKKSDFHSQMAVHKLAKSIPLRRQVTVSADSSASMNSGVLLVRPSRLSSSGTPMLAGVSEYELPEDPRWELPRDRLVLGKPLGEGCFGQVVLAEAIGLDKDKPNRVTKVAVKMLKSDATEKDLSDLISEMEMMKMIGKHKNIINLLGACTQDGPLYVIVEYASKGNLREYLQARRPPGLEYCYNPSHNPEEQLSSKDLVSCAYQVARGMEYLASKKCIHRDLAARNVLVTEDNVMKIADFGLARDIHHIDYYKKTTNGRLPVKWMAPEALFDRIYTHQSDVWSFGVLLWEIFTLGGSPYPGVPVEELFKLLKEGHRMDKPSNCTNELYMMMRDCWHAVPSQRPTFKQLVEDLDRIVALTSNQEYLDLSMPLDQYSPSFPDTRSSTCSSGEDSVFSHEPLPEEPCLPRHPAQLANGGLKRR
Tyrosine-protein kinase JAK3, sequence (P52333 whole entry): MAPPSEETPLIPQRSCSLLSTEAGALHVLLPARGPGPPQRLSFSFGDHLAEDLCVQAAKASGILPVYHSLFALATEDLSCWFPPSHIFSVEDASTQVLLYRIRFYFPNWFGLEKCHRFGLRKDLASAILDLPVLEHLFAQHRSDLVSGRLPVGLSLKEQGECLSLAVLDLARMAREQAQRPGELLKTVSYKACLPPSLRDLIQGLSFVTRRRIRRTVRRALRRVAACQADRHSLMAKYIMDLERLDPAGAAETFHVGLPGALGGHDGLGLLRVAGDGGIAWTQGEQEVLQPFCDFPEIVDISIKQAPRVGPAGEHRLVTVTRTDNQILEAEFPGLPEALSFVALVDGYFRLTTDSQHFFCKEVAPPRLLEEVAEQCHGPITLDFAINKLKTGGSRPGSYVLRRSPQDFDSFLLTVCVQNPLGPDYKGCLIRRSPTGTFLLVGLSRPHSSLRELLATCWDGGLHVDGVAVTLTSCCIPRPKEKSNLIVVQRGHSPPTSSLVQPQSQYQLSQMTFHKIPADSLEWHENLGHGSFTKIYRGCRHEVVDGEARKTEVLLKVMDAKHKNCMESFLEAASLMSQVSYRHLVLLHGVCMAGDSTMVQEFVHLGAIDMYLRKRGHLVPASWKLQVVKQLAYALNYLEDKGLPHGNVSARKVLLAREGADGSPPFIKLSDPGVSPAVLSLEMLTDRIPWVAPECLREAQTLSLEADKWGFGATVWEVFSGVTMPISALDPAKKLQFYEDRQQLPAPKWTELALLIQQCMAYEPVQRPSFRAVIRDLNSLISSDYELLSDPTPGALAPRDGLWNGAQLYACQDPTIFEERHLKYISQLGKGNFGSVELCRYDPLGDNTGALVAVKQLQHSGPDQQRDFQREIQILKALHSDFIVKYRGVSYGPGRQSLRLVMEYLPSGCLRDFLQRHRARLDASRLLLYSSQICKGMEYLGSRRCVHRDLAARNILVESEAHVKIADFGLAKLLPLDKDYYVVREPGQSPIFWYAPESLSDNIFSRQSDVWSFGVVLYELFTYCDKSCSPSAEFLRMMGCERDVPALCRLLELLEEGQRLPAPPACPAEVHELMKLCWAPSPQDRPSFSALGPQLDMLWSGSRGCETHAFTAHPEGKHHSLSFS

CCc1cccc(CC)c1NC(=O)c1nn(C)c2c1CCc1cnc(Nc3ccc(C(=O)NC4CCN(C)CC4)cc3OC(F)(F)F)nc1-2
IC50 [1]: > 10 µM
IC50 [2]: > 10 µM
IC50 [3]: > 10 µM
IC50 [4]: > 10 µM
IC50 [5]: > 10 µM
IC50 [6]: > 10 µM
IC50 [7]: > 10 µM
IC50 [8]: > 10 µM
IC50 [9]: > 10 µM
IC50 [10]: > 10 µM
IC50 [11]: 1860 nM
IC50 [12]: 1960 nM
IC50 [13]: 6.46 µM
IC50 [14]: 1240 nM
IC50 [15]: 2170 nM
IC50 [16]: 10 µM
IC50 [17]: 469 nM
IC50 [18]: 2880 nM
IC50 [19]: 2960 nM
IC50 [20]: 3.53 µM
IC50 [21]: 2180 nM
IC50 [22]: 6.98 µM
IC50 [23]: 1580 nM
IC50 [24]: 1600 nM
IC50 [25]: 6.96 µM
IC50 [26]: 2590 nM
IC50 [27]: 1480 nM
IC50 [28]: 1490 nM
IC50 [29]: 9.4 µM
IC50 [30]: 5.47 µM
IC50 [31]: 1150 nM
IC50 [32]: 5.22 µM
IC50 [33]: 1220 nM
IC50 [34]: 2640 nM
Activity [35]: Active
Activity [36]: Active
growth inhibition (GI) [37]: Active
Activity [38]: Active
half-life [39]: 1010 min
bioavailability [40]: 37.9%
bioavailability [41]: 22.6%
inhibition in vivo at 100 mg/kg [42]: 43%
IC50 [43]: > 10 µM
